Source: ChEMBL document CHEMBL4308841, “Synthesis, in vitro antiproliferative activity, and kinase inhibitory effects of pyrazole-containing diarylureas and diarylamides” (Eur J Med Chem, 2018)

Assays:
COLO 205 = assay: Growth inhibition of human COLO205 cells assessed as cell growth at 0.01 uM incubated for 48 hrs by sulforhodamine B assay relative to control; format: functional; conditions: COLO 205, 48 h, read-out: Activity
IGROV-1 = assay: Growth inhibition of human IGROV1 cells assessed as cell growth at 100 uM incubated for 48 hrs by sulforhodamine B assay relative to control; format: functional; conditions: IGROV-1, 48 h, read-out: Activity
HCT-116 = assay: Growth inhibition of human HCT116 cells assessed as cell growth at 100 uM incubated for 48 hrs by sulforhodamine B assay relative to control; format: functional; conditions: HCT-116, 48 h, read-out: Activity
SW-620 = assay: Growth inhibition of human SW620 cells assessed as cell growth at 1 uM incubated for 48 hrs by sulforhodamine B assay relative to control; format: functional; conditions: SW-620, 48 h, read-out: Activity
Hs-578T = assay: Growth inhibition of human Hs578T cells assessed as cell growth at 0.01 uM incubated for 48 hrs by sulforhodamine B assay relative to control; format: functional; conditions: read-out: Activity
HL-60(TB) [1] = assay: Growth inhibition of human HL-60(TB) cells assessed as cell growth at 0.01 uM incubated for 48 hrs by sulforhodamine B assay relative to control; format: functional; conditions: HL-60, 48 h, read-out: Activity
OVCAR-5 = assay: Growth inhibition of human OVCAR5 cells assessed as cell growth at 0.01 uM incubated for 48 hrs by sulforhodamine B assay relative to control; format: functional; conditions: OVCAR-5, 48 h, read-out: Activity
M14 = assay: Growth inhibition of human M14 cells incubated for 48 hrs by sulforhodamine B assay; format: functional, cell-based; conditions: M14, 48 h
SK-MEL-28 = assay: Growth inhibition of human SK-MEL-28 cells assessed as cell growth at 0.01 uM incubated for 48 hrs by sulforhodamine B assay relative to control; format: functional; conditions: SK-MEL-28, 48 h, read-out: Activity
UACC-62 = assay: Growth inhibition of human UACC62 cells assessed as cell growth at 0.01 uM incubated for 48 hrs by sulforhodamine B assay relative to control; format: functional; conditions: UACC-62, 48 h, read-out: Activity
SK-MEL-2 [2] = assay: Growth inhibition of human SK-MEL-2 cells assessed as cell growth at 1 uM incubated for 48 hrs by sulforhodamine B assay relative to control; format: functional; conditions: SK-MEL-2, 48 h, read-out: Activity
LOX IMVI [3] = assay: Growth inhibition of human LOXIMVI cells assessed as cell growth at 0.01 uM incubated for 48 hrs by sulforhodamine B assay relative to control; format: functional; conditions: read-out: Activity
UO-31 = assay: Growth inhibition of human UO31 cells assessed as cell growth at 0.01 uM incubated for 48 hrs by sulforhodamine B assay relative to control; format: functional; conditions: UO-31, 48 h, read-out: Activity
U-251 = assay: Growth inhibition of human U251 cells assessed as cell growth at 1 uM incubated for 48 hrs by sulforhodamine B assay relative to control; format: functional; conditions: U-251, 48 h, read-out: Activity
MOLT-4 = assay: Growth inhibition of human MOLT4 cells assessed as cell growth at 100 uM incubated for 48 hrs by sulforhodamine B assay relative to control; format: functional; conditions: MOLT-4, 48 h, read-out: Activity
OVCAR-8 = assay: Growth inhibition of human OVCAR8 cells assessed as cell growth at 1 uM incubated for 48 hrs by sulforhodamine B assay relative to control; format: functional; conditions: OVCAR-8, 48 h, read-out: Activity
NCI-H522 = assay: Growth inhibition of human NCI-H522 cells assessed as cell growth at 100 uM incubated for 48 hrs by sulforhodamine B assay relative to control; format: functional; conditions: NCI-H522, 48 h, read-out: Activity
OVCAR-4 = assay: Growth inhibition of human OVCAR4 cells assessed as cell growth at 0.01 uM incubated for 48 hrs by sulforhodamine B assay relative to control; format: functional; conditions: OVCAR-4, 48 h, read-out: Activity
RPMI-8226 = assay: Growth inhibition of human RPMI8226 cells assessed as cell growth at 0.01 uM incubated for 48 hrs by sulforhodamine B assay relative to control; format: functional; conditions: RPMI-8226, 48 h, read-out: Activity
SK-MEL-5 = assay: Growth inhibition of human SK-MEL-5 cells incubated for 48 hrs by sulforhodamine B assay; format: functional, cell-based; conditions: SK-MEL-5, 48 h
HOP-62 = assay: Growth inhibition of human HOP62 cells assessed as cell growth at 0.1 uM incubated for 48 hrs by sulforhodamine B assay relative to control; format: functional; conditions: HOP-62, 48 h, read-out: Activity
MDA-MB-435 [4] = assay: Growth inhibition of human MDA-MB-435 cells assessed as cell growth at 0.01 uM incubated for 48 hrs by sulforhodamine B assay relative to control; format: functional; conditions: MDA-MB-435, 48 h, read-out: Activity
MDA-MB-435 [5] = assay: Growth inhibition of human MDA-MB-435 cells incubated for 48 hrs by sulforhodamine B assay; format: functional, cell-based; conditions: MDA-MB-435, 48 h
SK-OV-3 = assay: Growth inhibition of human SKOV3 cells assessed as cell growth at 100 uM incubated for 48 hrs by sulforhodamine B assay relative to control; format: functional; conditions: SK-OV-3, 48 h, read-out: Activity
NCI-H460 = assay: Growth inhibition of human NCI-H460 cells assessed as cell growth at 1 uM incubated for 48 hrs by sulforhodamine B assay relative to control; format: functional; conditions: NCI-H460, 48 h, read-out: Activity
NCI/ADR-RES = assay: Growth inhibition of human NCI/ADR-RES cells assessed as cell growth at 0.01 uM incubated for 48 hrs by sulforhodamine B assay relative to control; format: functional; conditions: read-out: Activity
ACHN = assay: Growth inhibition of human ACHN cells assessed as cell growth at 1 uM incubated for 48 hrs by sulforhodamine B assay relative to control; format: functional; conditions: read-out: Activity
LOX IMVI [6] = assay: Growth inhibition of human LOXIMVI cells assessed as cell growth at 100 uM incubated for 48 hrs by sulforhodamine B assay relative to control; format: functional; conditions: read-out: Activity
786-0 = assay: Growth inhibition of human 786-0 cells assessed as cell growth at 0.1 uM incubated for 48 hrs by sulforhodamine B assay relative to control; format: functional; conditions: 786-0, 48 h, read-out: Activity
SK-MEL-2 [7] = assay: Growth inhibition of human SK-MEL-2 cells assessed as cell growth at 10 uM incubated for 48 hrs by sulforhodamine B assay relative to control; format: functional; conditions: SK-MEL-2, 48 h, read-out: Activity
HL-60(TB) [8] = assay: Growth inhibition of human HL-60(TB) cells assessed as cell growth at 100 uM incubated for 48 hrs by sulforhodamine B assay relative to control; format: functional; conditions: HL-60, 48 h, read-out: Activity
[9] = read-out: LC50 (the source's name)
[10] = read-out: pLC50 (the source's name) (converted)

## O=C(Nc1cccc(-n2cc(-c3ccncc3)c(-c3cc(O)cc(Cl)c3)n2)c1)Nc1ccc(Cl)c(Cl)c1
COLO 205
  growth at 0.01 µM: 106%
IGROV-1
  growth at 100 µM: -12%
HCT-116
  growth at 100 µM: -61%
SW-620
  growth at 1 µM: 102%
Hs-578T
  growth at 0.01 µM: 98%
HL-60(TB) [1]
  growth at 0.01 µM: 93%
OVCAR-5
  growth at 0.01 µM: 53%
M14; read-out: GI50
  GI50: 1.44 µM
M14; [9]
  CC50: 7.44 µM
M14; read-out: TGI
  TGI: 32.8 µM
M14; read-out: pGI50 (converted)
  GI50: 1.45 µM
M14; [10]
  CC50: 7.41 µM
M14; read-out: pTGI (converted)
  TGI: 3.31 µM
SK-MEL-28
  growth at 0.01 µM: 108%
UACC-62
  growth at 0.01 µM: 96%
SK-MEL-2 [2]
  growth at 1 µM: 56%
LOX IMVI [3]
  growth at 0.01 µM: 106%
UO-31
  growth at 0.01 µM: 93%
U-251
  growth at 1 µM: 74%
MOLT-4
  growth at 100 µM: -10%
OVCAR-8
  growth at 1 µM: 56%
NCI-H522
  growth at 100 µM: -55%
OVCAR-4
  growth at 0.01 µM: 108%
RPMI-8226
  growth at 0.01 µM: 104%
SK-MEL-5; read-out: GI50
  GI50: 1.52 µM
SK-MEL-5; [9]
  CC50: 5.75 µM
SK-MEL-5; read-out: TGI
  TGI: 30.4 µM
SK-MEL-5; read-out: pGI50 (converted)
  GI50: 1.62 µM
SK-MEL-5; [10]
  CC50: 5.75 µM
SK-MEL-5; read-out: pTGI (converted)
  TGI: 3.02 µM
HOP-62
  growth at 0.1 µM: 97%
MDA-MB-435 [4]
  growth at 0.01 µM: 96%
MDA-MB-435 [5]; read-out: GI50
  GI50: 1.5 µM
MDA-MB-435 [5]; read-out: TGI
  TGI: 35.8 µM
MDA-MB-435 [5]; read-out: pGI50 (converted)
  GI50: 1.58 µM
MDA-MB-435 [5]; read-out: pTGI (converted)
  TGI: 3.55 µM
SK-OV-3
  growth at 100 µM: -22%
NCI-H460
  growth at 1 µM: 58%
NCI/ADR-RES
  growth at 0.01 µM: 109%
ACHN
  growth at 1 µM: 79%
LOX IMVI [6]
  growth at 100 µM: -38%
786-0
  growth at 0.1 µM: 90%

## O=C(Nc1cccc(-n2cc(-c3ccncc3)c(-c3cc(O)cc(Cl)c3)n2)c1)c1ccc(N2CCOCC2)c(C(F)(F)F)c1
COLO 205
  growth at 0.01 µM: 106%
IGROV-1
  growth at 100 µM: 25%
SW-620
  growth at 1 µM: 107%
Hs-578T
  growth at 0.01 µM: 96%
HL-60(TB) [1]
  growth at 0.01 µM: 92%
OVCAR-5
  growth at 0.01 µM: 52%
M14; read-out: GI50
  GI50: 0.774 µM
M14; [9]
  CC50: 54.5 µM
M14; read-out: TGI
  TGI: 21.4 µM
M14; read-out: pGI50 (converted)
  GI50: 0.776 µM
M14; [10]
  CC50: 8.51 µM
M14; read-out: pTGI (converted)
  TGI: 2.75 µM
SK-MEL-28
  growth at 0.01 µM: 99%
UACC-62
  growth at 0.01 µM: 96%
SK-MEL-2 [2]
  growth at 1 µM: 77%
LOX IMVI [3]
  growth at 0.01 µM: 100%
UO-31
  growth at 0.01 µM: 85%
U-251
  growth at 1 µM: 51%
SK-MEL-2 [7]
  growth at 10 µM: 22.9%
MOLT-4
  growth at 100 µM: -20%
OVCAR-8
  growth at 1 µM: 57%
NCI-H522
  growth at 100 µM: -20%
OVCAR-4
  growth at 0.01 µM: 100%
RPMI-8226
  growth at 0.01 µM: 104%
SK-MEL-5; read-out: GI50
  GI50: 2.33 µM
SK-MEL-5; [9]
  CC50: 45.4 µM
SK-MEL-5; read-out: TGI
  TGI: 84.9 µM
SK-MEL-5; read-out: pGI50 (converted)
  GI50: 2.34 µM
SK-MEL-5; [10]
  CC50: 46.8 µM
SK-MEL-5; read-out: pTGI (converted)
  TGI: 8.51 µM
HOP-62
  growth at 0.1 µM: 112%
MDA-MB-435 [4]
  growth at 0.01 µM: 96%
MDA-MB-435 [5]; read-out: GI50
  GI50: 2 µM
MDA-MB-435 [5]; read-out: LC50
  LC50: > 100 µM
MDA-MB-435 [5]; read-out: TGI
  TGI: > 100 µM
MDA-MB-435 [5]; read-out: pGI50 (converted)
  GI50: 2.04 µM
MDA-MB-435 [5]; read-out: pLC50 (converted)
  LC50: > 100 µM
MDA-MB-435 [5]; read-out: pTGI (converted)
  TGI: > 100 µM
SK-OV-3
  growth at 100 µM: 19%
NCI-H460
  growth at 1 µM: 44%
NCI/ADR-RES
  growth at 0.01 µM: 101%
ACHN
  growth at 1 µM: 52%
LOX IMVI [6]
  growth at 100 µM: -45%
786-0
  growth at 0.1 µM: 94%
HL-60(TB) [8]
  growth at 100 µM: -48%
